Laboratory results reported in patent US9937250B2, “Immunogenic tumor associated stromal cell antigen peptides and methods of their use” (University of Pittsburgh—Of the Commonwealth System of …, priority 2011, dated 2018).

Experiments:
[1] = tested on: tumor-associated pericytes and VEC; experiment: Day 60 splenic CD8+ T cell IFN-γ response in mice cured of B16 by vaccination; type: cell-based, HHD mice; details: 60 days after tumor inoculation, IFN-γ ELISA (FIG. 12)
Description: HHD mice bearing established day seven B16 melanomas were therapeutically vaccinated with peptides derived from the TASA DLK1 or RGS5 as described in FIG. 11B. Tumors regressed to a non-detectable level over the next two weeks. Sixty days after tumor inoculation, CD8^+ T cells were MACS-isolated from the spleens of these animals and evaluated for IFN-γ production (by ELISA) in response to pericytes and VEC (flow-sorted from day 19 untreated B16 tumors or tumor-uninvolved kidneys of B16-bearing HHD mice), as well as, HLA-A2^+ T2 cells (control or pulsed with the indicated peptides). *p<0.05 versus anti-class I mAb blockade (when evaluating responses against pericytes, VEC or B16 tumor cells) or T2 cells only (when evaluating anti-peptide responses). […]
Evaluation of Specific CD8^+ T Cell Responses in HHD Mice. MACS (Miltenyi Biotec) CD8^+ splenocytes were harvested (from 3 mice/group) 7 days after the second round of DC-based vaccination (i.e. day 21 after tumor inoculation) and analyzed for reactivity against unpulsed T2 cells, TBVA peptide-pulsed T2 cells, or day 19 (flow-sorted) B16-derived PDGFRβ^+CD31^negH-2K^b(neg) pericytes or PDGFRβ^negCD31^+H-2K^b(neg) VEC isolated as previously described (Zhao et al., Mol Ther., 19:805-814, 2011). […] After 48 h, supernatants were analyzed for mIFN-γ content by specific ELISA (BD-Biosciences; lower detection limit=31.3 pg/ml). […]

CD8+ splenocytes = experiment: Tc1 response to DC.IL12/peptide vaccination (splenic CD8+ T cell IFN-γ ELISA against peptide-pulsed T2 cells); type: in vivo, HHD mice; details: DC.IL12 pulsed with peptide(s), two s.c. vaccinations; versus DC only
Description: FIGS. 9A-9B show a series of graphs illustrating induction of specific/protective CD8^+ T cells reactive against TASA as a consequence of DC/peptide-based vaccination. In FIG. 9A, HHD mice (five animals/cohort) were vaccinated twice (d-14, d-7) subcutaneously with PBS or with isologous DC.IL12 pulsed with PBS or synthetic peptides (Table 6) derived from the indicated TASA. In cases where more than 1 peptide was identified for a given target antigen, an equimolar pool of the indicated peptides (each 10 μM) was pulsed onto DC.IL12 and used for vaccination in the relevant cohort. One week after the second immunization, spleens were harvested and splenic CD8^+ T cells isolated using MACS-beads (Miltenyi). T cells were stimulated in vitro for 48 h using the HLA-A2^+ T2 cell line pulsed with relevant TASA vs. irrelevant HIV-nef190-198 ([…]; ref. 24) peptides. Cell-free supernatants were then recovered and IFN-γ levels by ELISA. Data are reported as mean+/−SD for triplicate ELISA determinations, and are representative of 3 independent experiments performed. *p<0.05 vs. HIV-nef control peptide responses. In FIG. 9B, HHD mice were vaccinated twice (days −14 and −7; right flank) subcutaneously with PBS or with isologous DC.IL12 pulsed with PBS or synthetic TASA peptides as indicated in FIG. 1A. In cases where more than 1 peptide is identified for a given target antigen, an equimolar pool of the indicated peptides (each 10 μM) was pulsed onto DC.IL12 and used for vaccination in the relevant cohort. One week after the booster vaccine (i.e. day zero), animals were challenged subcutaneously on their left flank with 2×10^6 MC38 colon carcinoma cells. Tumor growth was then monitored every 3-4 days through day 24. All data represent mean tumor area (in mm^2)+/−SD determined from 5 mice/cohort, and are representative of three independent experiments performed. *p<0.05 versus DC only on the indicated days.
Vaccine Experiments. For prophylactic experiments, HHD mice were immunized subcutaneously on the right flank with 100 μl PBS or PBS containing 10^6 syngenic DC.IL12 cells that had been untreated or pre-pulsed for 4 h at 37° C. with 10 μM synthetic peptide(s). Immunizations occurred on days −14 and −7, with mice subsequently receiving injections of MC38 (2×10^6) tumor cells in the left flank on d0. In all cases, treatment groups contained 5 mice per cohort. For analysis of tumor cellular composition in repeat experiments, MC38 tumors were isolated by surgical resection 10 days after tumor inoculation and prepared for fluorescence imaging, as described below. […] Mice were then untreated or treated with control, syngenic DC.IL12 or DC.IL12 (10^6 cells injected subcutaneously in the left flank on days 7 and 14) pulsed with synthetic TBVA peptides. In some assays, as indicated, in vivo antibody depletions (on days 6, 13 and 20 post-tumor inoculation to assess early involvement or on days 60 and 67 or 180 and 187 to assess late involvement) of protective CD4^+ T cells or CD8^+ T cells were performed and monitored as previously described (Zhao et al., Mol Ther., 19:805-814, 2011). In all cases, tumor size (area) was monitored every 3-4 days and is reported as mean+/−SD in mm^2.
Evaluation of Specific CD8^+ T Cell Responses in HHD Mice. MACS (Miltenyi Biotec) CD8^+ splenocytes were harvested (from 3 mice/group) 7 days after the second round of DC-based vaccination (i.e. day 21 after tumor inoculation) and analyzed for reactivity against unpulsed T2 cells, TBVA peptide-pulsed T2 cells, or day 19 (flow-sorted) B16-derived PDGFRβ^+CD31^negH-2K^b(neg) pericytes or PDGFRβ^negCD31^+H-2K^b(neg) VEC isolated as previously described (Zhao et al., Mol Ther., 19:805-814, 2011). Where indicated, 10 μg of anti-HLA-A2 mAb BB7.2 or control anti-class II mAb L243 (both from ATCC, Manassas, Va.) were added to replicate co-culture wells. After 48 h, supernatants were analyzed for mIFN-γ content by specific ELISA (BD-Biosciences; lower detection limit=31.3 pg/ml). […]

Q: Which results are given for LAALPHSCL (listed as Homo sapiens)?
A: Tc1 recognition of tumor pericytes/VEC by splenic CD8+ T cells of cured mice [1]: clear Tc1 recognition of tumor (but not tumor-uninvolved kidney) pericytes; Tc1 Response to Peptide Vaccine (HHD) (CD8+ splenocytes): + (+, p < 0.05 versus DC only)
